According to paper PMC6309939 (Pain, 2019):

Molecular target: human α4β3δ GABAA receptor (β3 subunit) (Homo sapiens, UniProt P28472)
Assay: two-electrode voltage clamp in oocytes, potentiation of GABA EC10 currents
Format: cell-based

Chain of human α4β3δ GABAA receptor (β3 subunit) (P28472 26-473): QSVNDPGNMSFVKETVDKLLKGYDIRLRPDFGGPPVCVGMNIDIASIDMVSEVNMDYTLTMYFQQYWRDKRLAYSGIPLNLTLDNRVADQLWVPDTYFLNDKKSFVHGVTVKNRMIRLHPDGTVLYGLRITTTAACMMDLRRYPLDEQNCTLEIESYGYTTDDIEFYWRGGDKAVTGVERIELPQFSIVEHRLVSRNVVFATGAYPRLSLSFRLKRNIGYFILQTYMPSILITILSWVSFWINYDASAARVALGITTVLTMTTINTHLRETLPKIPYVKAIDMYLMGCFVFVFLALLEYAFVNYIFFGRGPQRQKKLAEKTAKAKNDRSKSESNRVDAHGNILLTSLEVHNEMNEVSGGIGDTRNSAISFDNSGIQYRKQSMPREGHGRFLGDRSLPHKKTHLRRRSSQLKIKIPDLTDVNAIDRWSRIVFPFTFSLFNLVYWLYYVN
Chain of human α4β3δ GABAA receptor (β3 subunit) (P48169 36-554 partner): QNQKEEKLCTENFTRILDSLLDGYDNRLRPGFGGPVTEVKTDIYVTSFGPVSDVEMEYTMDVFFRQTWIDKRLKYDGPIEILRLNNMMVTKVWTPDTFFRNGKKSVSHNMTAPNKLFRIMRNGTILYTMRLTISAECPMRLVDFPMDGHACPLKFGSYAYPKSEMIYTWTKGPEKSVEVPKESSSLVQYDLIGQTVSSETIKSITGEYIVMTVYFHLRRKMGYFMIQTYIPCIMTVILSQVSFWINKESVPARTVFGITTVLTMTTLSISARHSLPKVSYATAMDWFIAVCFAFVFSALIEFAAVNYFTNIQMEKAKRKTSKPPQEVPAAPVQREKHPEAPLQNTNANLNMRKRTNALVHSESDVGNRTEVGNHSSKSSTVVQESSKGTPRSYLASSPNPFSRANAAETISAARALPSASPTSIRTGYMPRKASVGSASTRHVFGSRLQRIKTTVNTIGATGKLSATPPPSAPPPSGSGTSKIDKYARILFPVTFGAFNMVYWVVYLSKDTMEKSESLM
Chain of human α4β3δ GABAA receptor (β3 subunit) (O14764 25-452 partner): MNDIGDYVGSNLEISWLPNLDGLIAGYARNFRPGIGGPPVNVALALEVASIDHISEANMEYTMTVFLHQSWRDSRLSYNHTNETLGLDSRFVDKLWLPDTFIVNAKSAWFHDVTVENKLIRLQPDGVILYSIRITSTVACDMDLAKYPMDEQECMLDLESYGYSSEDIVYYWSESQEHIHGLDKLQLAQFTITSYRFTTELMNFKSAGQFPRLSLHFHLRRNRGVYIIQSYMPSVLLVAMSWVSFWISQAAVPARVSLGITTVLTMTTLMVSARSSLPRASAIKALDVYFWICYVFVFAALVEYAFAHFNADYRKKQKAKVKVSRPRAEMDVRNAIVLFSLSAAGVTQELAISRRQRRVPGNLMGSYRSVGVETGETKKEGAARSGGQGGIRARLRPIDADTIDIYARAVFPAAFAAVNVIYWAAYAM

Question: With `CC(=O)[C@H]1CC[C@H]2[C@@H]3CC[C@H]4C[C@H](O)CC[C@]4(C)[C@H]3CC[C@]12C` [ALLO, allopregnanolone] as the compound, how does the EC50 read?
Answer: The EC50 was 520 nM.
